A word on the MIC: it is the lowest concentration that inhibits growth of the organism. By Ki is commonly meant a dissociation constant, usually derived from enzyme kinetics or from competition with a known ligand.

40 molecules from ChEMBL document CHEMBL1821644, “A prodrug approach for improving antituberculosis activity of potent Mycobacterium tuberculosis type II dehydroquinase inhibitors” (J Med Chem, 2011) can be followed below.

One data set relates to MRC5. Put plainly: Cytotoxicity against human MRC5 at 300 to 400 ug/ml using crystal violet staining. It counts as cell-based.
For data set [1], the system named is Mycobacterium tuberculosis. Put plainly: Antimicrobial activity against Mycobacterium tuberculosis H37Rv by Microplate Alamar blue assay. It counts as functional. For orientation: Resazurin is reduced to fluorescent resorufin, in cell work by metabolically active cells.
The target in data set [2] is T1, 3-dehydroquinate dehydratase (Mycobacterium tuberculosis, UniProt P9WPX7).
T1 sequence (P9WPX7 whole entry): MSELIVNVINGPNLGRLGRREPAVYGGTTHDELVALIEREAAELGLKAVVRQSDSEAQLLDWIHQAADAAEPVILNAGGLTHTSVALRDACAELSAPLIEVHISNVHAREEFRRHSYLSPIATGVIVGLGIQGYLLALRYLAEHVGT
Put plainly: Competitive inhibition of Mycobacterium tuberculosis DHQ2.

Data set [3] concerns the target T2, 3-dehydroquinate dehydratase (Mycobacterium tuberculosis) (UniProt P9WPX7).
T2 sequence (whole entry): T1 sequence (P9WPX7 whole entry)
As to the kind of experiment: Reversible inhibition of Mycobacterium tuberculosis DHQ2.

Data set [4] concerns the target T3, 3-dehydroquinate dehydratase (Helicobacter pylori (strain ATCC 700392 / 26695) (Campylobacterpylori), UniProt Q48255).
T3 sequence (Q48255 whole entry): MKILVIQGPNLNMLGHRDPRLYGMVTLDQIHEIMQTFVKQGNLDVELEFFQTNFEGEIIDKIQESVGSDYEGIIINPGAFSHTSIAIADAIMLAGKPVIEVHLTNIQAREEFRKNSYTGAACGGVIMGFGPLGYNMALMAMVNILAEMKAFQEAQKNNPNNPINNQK
As to the kind of experiment: Competitive inhibition of Helicobacter pylori DHQ2.

Data set [5] addresses T4, 3-dehydroquinate dehydratase (Helicobacter pylori (strain ATCC 700392 / 26695) (Campylobacterpylori)) (UniProt Q48255).
T4 sequence (whole entry): T3 sequence (Q48255 whole entry)
Put plainly: Reversible inhibition of Helicobacter pylori DHQ2.

Values after ≈ are worked out from the molar mass of the structure shown. Active and inactive are the calls of the source. No cut-off for these calls is given here. A value given as a limit tells only on which side of the number the result lay.

For the molecule `CCCOC(=O)[C@]1(O)C=C(OCc2ccc3sccc3c2)[C@@H](OC(=O)CCC)[C@H](O)C1`, the Activity result in the data set on MRC5 is “Non-toxic”. The same molecule registered a minimal inhibitory concentration (MIC) in data set [1] of 5 µg/mL (≈ 11.1 µM).

As for `CCOC(=O)[C@]1(O)C=C(OCc2ccc3ccccc3c2)[C@@H](O)[C@H](O)C1`, the Activity result in the data set on MRC5 is on record as “Non-toxic”. This molecule also returned an MIC in data set [1] of 20 µg/mL (≈ 55.8 µM).

Consider `CCOC(=O)[C@]1(O)C=C(OCc2cc3ccccc3s2)[C@@H](O)[C@H](O)C1`, for which, in the data set on MRC5, the Activity entry is “Non-toxic”. In data set [1], this molecule had an MIC of 40 µg/mL (≈ 110 µM).

The molecule `O=C(O)[C@]1(O)C=C(/C=C/COc2ccc(F)cc2)[C@@H](O)[C@H](O)C1` yielded a Ki in data set [2] of 120 nM. In other words, the sub-micromolar range.

As to `CCOC(=O)[C@@]1(O)C[C@@H](O)[C@H](O)C(OCc2cc3ccc(Cl)cc3s2)=C1Cc1cc2ccc(Cl)cc2s1`, the Activity entry in the data set with MRC5 is “Non-toxic”. The molecule further showed an MIC in data set [1] above 160 µg/mL.

With `Cc1ccc2sc(COC3=C(Cc4cc5cc(C)ccc5s4)[C@@](O)(C(=O)O)C[C@@H](O)[C@@H]3O)cc2c1`, the inhibition result in data set [3] and in data set [5] was “Active” each time. The affinity in data set [4] corresponds to a Ki of 50 nM.

Take `CCCOC(=O)[C@]1(O)C=C(OCc2ccc3ccccc3c2)[C@@H](O)[C@H](O)C1`: in the data set with MRC5, the Activity result is reported as “Non-toxic”. The same molecule yielded an MIC in data set [1] of 10 µg/mL (≈ 26.9 µM).

In the case of `C=CCC1=C(OCc2cc3ccccc3s2)[C@@H](O)[C@H](O)C[C@]1(O)C(=O)O`, the inhibition result in data set [3] and in data set [5] was “Active” throughout.

On to `O=C(O)[C@]1(O)C=C(OCc2ccc3sccc3c2)[C@@H](O)[C@H](O)C1`, for which the inhibition entry in data set [3] and in data set [5] was “Active” throughout.

For `CCCC(=O)O[C@@H]1C(OCc2ccc3ccccc3c2)=C[C@@](O)(C(=O)OCC)C[C@H]1O`, the Activity entry in the data set on MRC5 was “Non-toxic”. Besides, the MIC in data set [1] was 10 µg/mL (≈ 23.3 µM).

As to `COC(=O)[C@]1(O)C=C(OCc2cc3ccc(Cl)cc3s2)[C@@H](O)[C@H](O)C1`, the Activity entry in the data set on MRC5 is “Non-toxic”. The same molecule displayed an MIC in data set [1] above 160 µg/mL.

As for `O=C(O)[C@]1(O)C=C(OCc2cccs2)[C@@H](O)[C@H](O)C1`, the inhibition entry in data set [3] and in data set [5] was “Active” in each case. Affinity in data set [2] was put at a Ki of 235 nM.

For the molecule `CCCC(=O)O[C@@H]1C(OCc2ccc3sccc3c2)=C[C@@](O)(C(=O)OCC)C[C@H]1OC(=O)CCC`, the Activity entry in the data set with MRC5 is “Non-toxic”. Inhibition of growth in data set [1] (MIC) required 5 µg/mL (≈ 9.91 µM).

As to `O=C(O)[C@@]1(O)C[C@@H](O)[C@H](O)C(OCc2cc3ccccc3s2)=C1Cc1cc2ccccc2s1`, the inhibition entry in data set [3] and in data set [5] was “Active” each time. In addition, the Ki worked out at 97 nM in data set [4] and 40 nM in data set [2].

With `Cc1ccc2sc(CC3=C(OCc4cccs4)[C@@H](O)[C@H](O)C[C@]3(O)C(=O)O)cc2c1`, the inhibition entry in data set [3] and in data set [5] was “Active” in each case. Further, the Ki in data set [4] was found to be 279 nM; in data set [2], 870 nM.

Turning to `O=C(O)[C@]1(O)C=C(c2cccs2)[C@@H](O)[C@H](O)C1`, in data set [2], affinity was put at a Ki of 250 nM.

On to `CCOC(=O)[C@@]1(O)C[C@@H](O)[C@H](O)C(OCc2ccc3sccc3c2)=C1Cc1ccc2sccc2c1`, for which the Activity entry with MRC5 is reported as “Non-toxic”. In data set [1], this molecule yielded an MIC of 160 µg/mL (≈ 313 µM).

Regarding `O=C(O)[C@@]1(O)C[C@@H](O)[C@H](O)C(OCc2cccs2)=C1Cc1ccc2sccc2c1`, the inhibition result in data set [3] and in data set [5] was “Active” each time. Further, the Ki in data set [4] came out at 100 nM; in data set [2], 59 nM.

In the case of `COC(=O)[C@]1(O)C=C(OCc2cc3ccccc3s2)[C@@H](O)[C@H](O)C1`, in the data set on MRC5, the Activity entry was “Non-toxic”. The MIC in data set [1] was above 160 µg/mL.

In the case of `Cc1ccc2sc(COC3=C[C@@](O)(C(=O)O)C[C@@H](O)[C@@H]3O)cc2c1`, the inhibition result in data set [3] and in data set [5] was “Active” each time.

Turning to `O=C(O)[C@]1(O)C=C(OCc2cc3ccc(Cl)cc3s2)[C@@H](O)[C@H](O)C1`, the inhibition result in data set [3] and in data set [5] was “Active” each time. Besides, the Ki in data set [4] came out at 205 nM; in data set [2], 35 nM.

`CCCOC(=O)[C@]1(O)C=C(OCc2ccc3sccc3c2)[C@@H](O)[C@H](O)C1`: the Activity result in the data set with MRC5 was “Non-toxic”. The molecule also registered an MIC in data set [1] of 20 µg/mL (≈ 52.8 µM).

Turning to `O=C(O)[C@@]1(O)C[C@@H](O)[C@H](O)C(OCc2ccc3ccccc3c2)=C1Cc1ccc2ccccc2c1`, the inhibition entry in data set [3] and in data set [5] was “Active” in each case. Besides, the Ki in data set [4] is 260 nM; in data set [2], 6000 nM.

With `CCOC(=O)[C@]1(O)C=C(OCc2cc3ccc(Cl)cc3s2)[C@@H](O)[C@H](O)C1`, in the data set with MRC5, the Activity entry is “Non-toxic”. The molecule also gave an MIC in data set [1] of 40 µg/mL (≈ 100 µM).

As for `O=C(O)[C@@]1(O)C[C@@H](O)[C@H](O)C(OCc2ccc3sccc3c2)=C1Cc1ccc2sccc2c1`, the inhibition result in data set [3] and in data set [5] was “Active” each time. This molecule showed a Ki in data set [4] of 140 nM.

As for `COC(=O)[C@@]1(O)C[C@@H](O)[C@H](O)C(OCc2cc3ccc(Cl)cc3s2)=C1Cc1cc2ccc(Cl)cc2s1`, the Activity entry in the data set on MRC5 is recorded as “Non-toxic”. In addition, the MIC in data set [1] was determined as 80 µg/mL (≈ 141 µM).

With `CCOC(=O)[C@]1(O)C=C(OCc2ccc3sccc3c2)[C@@H](O)[C@H](O)C1`, the Activity entry in the data set with MRC5 is “Non-toxic”. The molecule also showed an MIC in data set [1] of 40 µg/mL (≈ 110 µM).

Regarding `O=C(O)[C@@]1(O)C[C@@H](O)[C@H](O)C(OCc2cc3ccc(Cl)cc3s2)=C1Cc1cc2ccc(Cl)cc2s1`, the inhibition entry in data set [3] and in data set [5] was “Active” each time. The Ki is 6700 nM in data set [4] and 1100 nM in data set [2].

Take `CCCOC(=O)[C@]1(O)C=C(OCc2cc3ccc(Cl)cc3s2)[C@@H](O)[C@H](O)C1`: the Activity entry in the data set on MRC5 is given as “Non-toxic”. The MIC in data set [1] stood at 40 µg/mL (≈ 96.9 µM).

On to `COC(=O)[C@]1(O)C=C(OCc2cc3cc(C)ccc3s2)[C@@H](O)[C@H](O)C1`, for which the Activity entry with MRC5 is “Non-toxic”. The MIC in data set [1] is above 160 µg/mL.

With `CCCOC(=O)[C@]1(O)C=C(OCc2cc3ccccc3s2)[C@@H](O)[C@H](O)C1`, the Activity entry in the data set with MRC5 was “Non-toxic”. In data set [1], the MIC was found to be 5 µg/mL (≈ 13.2 µM).

For the molecule `O=C(O)[C@]1(O)C=C(OCc2cc3ccccc3s2)[C@@H](O)[C@H](O)C1`, the inhibition entry in data set [3] and in data set [5] was “Active” each time. In data set [2], the Ki came out at 28 nM.

For `O=C(O)[C@@]1(O)C[C@@H](O)[C@H](O)C(OCc2cccs2)=C1Cc1cccs1`, the inhibition entry in data set [3] and in data set [5] was “Active” in each case. Besides, the results for the Ki in data set [4] and in data set [2] were 14600 nM and 5100 nM, respectively.

As to `COC(=O)[C@]1(O)C=C(OCc2ccc3sccc3c2)[C@@H](O)[C@H](O)C1`, in the data set with MRC5, the Activity entry is recorded as “Non-toxic”. The MIC in data set [1] was above 160 µg/mL.

On to `O=C(O)[C@]1(O)C=C(OCc2ccc3ccccc3c2)[C@@H](O)[C@H](O)C1`, for which the inhibition entry in data set [3] and in data set [5] was “Active” throughout. In addition, the values for the Ki in data set [4] and in data set [2] were 310 nM and 35 nM, respectively.

For `O=C(O)[C@@]1(O)C[C@@H](O)[C@H](O)C(OCc2cc3ccccc3s2)=C1Cc1cccs1`, the inhibition entry in data set [3] and in data set [5] was “Active” in each case. Also, the Ki in data set [4] was determined as 280 nM.

With `CCCC(=O)O[C@@H]1C(OCc2ccc3ccccc3c2)=C[C@@](O)(C(=O)OCC)C[C@H]1OC(=O)CCC`, in the data set on MRC5, the Activity result is given as “Non-toxic”. In addition, the MIC in data set [1] came out at 5 µg/mL (≈ 10 µM).

Regarding `COC(=O)[C@@]1(O)C[C@@H](O)[C@H](O)C(OCc2cc3cc(C)ccc3s2)=C1Cc1cc2cc(C)ccc2s1`, the Activity entry in the data set on MRC5 was “Non-toxic”. In data set [1], this molecule had an MIC above 160 µg/mL.

On to `CCCOC(=O)[C@]1(O)C=C(OCc2ccc3sccc3c2)[C@@H](OC(=O)CCC)[C@H](OC(=O)CCC)C1`, for which the Activity result in the data set on MRC5 was “Non-toxic”. The molecule further returned an MIC in data set [1] of 20 µg/mL (≈ 38.6 µM).

In the case of `CCCOC(=O)[C@]1(O)C=C(OCc2ccc3ccccc3c2)[C@@H](OC(=O)CCC)[C@H](OC(=O)CCC)C1`, the Activity result in the data set with MRC5 is “Non-toxic”. Inhibition of growth in data set [1] (MIC) required 5 µg/mL (≈ 9.75 µM).
